Data set [1] in a line: PET imaging of [11C]rhodamine-123 in rats. In kind it is in vivo, rat.
The conditions of data set [2]: cited from earlier work.
For data set [3] the following is noted: mouse; cited from earlier work.
Data set [4] concerns P-gp. The conditions noted are these: mouse, not told, iv; cited from earlier work.

For the compound `CN/C(=N/CCSCc1nc[nH]c1C)NC#N` [cimetidine], in data set [1] (30 mg/kg i.v., 30 min before radiotracer, rats), the “inhibition of OCT in kidney in vivo” value is “effective inhibitor of OCT in vivo”.

For the compound `CNC(=O)C(CCN1CCC(O)(c2ccc(Cl)cc2)CC1)(c1ccccc1)c1ccccc1` [dLop, desmethyl-loperamide], in data set [2], the logD is reported as 2.60 and the pKa is 7.2–7.3.

For `COC(=O)c1ccccc1-c1c2ccc(=N)cc-2oc2cc(N)ccc12.Cl` [rhodamine-123], the “peak radioactivity in liver (PET)” value in data set [1] (DCPQ-pretreated versus untreated rats) was “greater peak radioactivity in liver”. Besides, in data set [3], the Plasma free fraction is given as 0.23 ± 0.04. In addition, the “brain concentration, P-gp knockout (mdr1a(−/−)) versus wild-type mice” value in data set [4] was “about 4 fold”.
